# Literature values as cited in patent publication US20140128375A1, “B[…] AS CGRP RECEPTOR ANTAGONISTS” (priority 2006, published 2014).
# Test system: CGRP
# Conditions: marmoset, electrical stimulation of the trigeminal ganglion
compound,measurement,value
NCCCC[C@H](NC(=O)[C@@H](Cc1cc(Br)c(O)c(Br)c1)NC(=O)N1CCC(N2Cc3ccccc3NC2=O)CC1)C(=O)N1CCN(c2ccncc2)CC1 [BIBN4096BS],effect on increase in facial blood flow,could be blocked
